The values that follow come from ChEMBL document CHEMBL3259547, “Selective 5-HT Receptor Modulators May Deliver Focused Targeting with Fewer Adverse Effects” (ACS Med Chem Lett, 2014).

5-hydroxytryptamine receptor 7 (Rattus norvegicus), sequence (P32305 whole entry): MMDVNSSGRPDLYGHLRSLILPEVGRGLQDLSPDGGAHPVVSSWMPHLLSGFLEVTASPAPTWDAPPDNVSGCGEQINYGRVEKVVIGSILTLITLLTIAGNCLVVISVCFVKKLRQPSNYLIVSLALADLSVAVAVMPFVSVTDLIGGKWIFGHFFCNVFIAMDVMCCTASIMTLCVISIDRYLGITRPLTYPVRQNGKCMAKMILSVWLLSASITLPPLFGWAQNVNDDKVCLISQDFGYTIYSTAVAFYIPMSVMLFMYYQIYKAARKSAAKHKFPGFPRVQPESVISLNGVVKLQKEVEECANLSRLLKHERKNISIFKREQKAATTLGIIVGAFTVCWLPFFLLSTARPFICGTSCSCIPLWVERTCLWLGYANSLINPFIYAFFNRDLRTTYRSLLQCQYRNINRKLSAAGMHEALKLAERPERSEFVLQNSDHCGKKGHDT

This experiment concerns the target 5-hydroxytryptamine receptor 7 (Rattus norvegicus) (UniProt P32305). Description: Modulation of rat 5HT7 receptor by cAMP assay. The class given is functional. Background: cAMP levels reflect the balance of adenylyl cyclase and phosphodiesterase activity.
By pKb is commonly meant the negative decadic logarithm of the Kb, by convention in mol/L. Regarding `Cc1nc(COc2ccc(Cl)cc2OC2CNC2)cs1`, the negative logarithm of the Kb (pKb) came to 6.9. With `Clc1cccc(COc2ccc(Br)cc2OC2CNC2)c1` the figure was 7.5; with `FC(F)(COc1ccc(Cl)cc1OC1CNC1)c1ccccc1`, 7.3. With `C[C@@H](Oc1ccc(C(F)(F)F)cc1OC1CNC1)c1cccc(C(F)(F)F)c1` the figure was 6.8.
